Test results published in patent US20030162751A1, “Pharmaceutical composition comprising 5' monophosphate ester of riboflavin and solubilized riboflavin” (priority 2001, published 2003).
≈ marks a conversion by molar mass, not a printed value. Read-outs that look alike come from different tables or passages of the source.

What was measured:
[1] = Solubilization of lumichrome in the FMN formulation; format: physicochemical; settings: in the current FMN formulation
[2] = Solubility of riboflavin as a function of pH and % FMN; format: physicochemical
Excerpt: The intrinsic solubility of riboflavin is approximately 70 mcg/ml (see plot below with no FMN present). Precipitation is expected to occur if riboflavin reaches a level above this (due to riboflavin in drug substance or due to degradation to riboflavin with time), and precipitation would be unacceptable for patient safety with intravenous use.
Solubility of Riboflavin as a function of pH and % FMN [formula]
At 1% FMN, up to 365 mcg/ml of riboflavin can dissolve.

solubility ([2]; 1% FMN solution, aqueous with cosolvent or surfactant or cyclodextrin, read-out: riboflavin solubility (amount that can dissolve)) [µg/mL]	solubility ([2]; 5% FMN solution, aqueous with cosolvent or surfactant or cyclodextrin, 5% FMN, pH 7-8, read-out: riboflavin solubility (amount that can dissolve)) [µg/mL]	intrinsic (equilibrium) solubility of riboflavin ([2]; no FMN present)	solubility ([2]; no FMN present, read-out: intrinsic (equilibrium) solubility of riboflavin) [µg/mL]	Structure (SMILES)	solubility of lumichrome relative to equilibrium solubility [1]
–	–	–	–	Cc1cc2nc3[nH]c(=O)[nH]c(=O)c3nc2cc1C [lumichrome]	dissolve at levels above the equilibrium solubility
≤ 365	≤ 1320	approximately 70 mcg/ml	~70 (≈ 186 µM)	Cc1cc2nc3c(=O)[nH]c(=O)nc-3n(C[C@H](O)[C@H](O)[C@H](O)CO)c2cc1C [riboflavin]	–
